Earlier results as cited in patent US10160778B2, “Pyrimidine phosphonic acid esters” (Concert Pharmaceuticals, Inc., priority 2014, dated 2018).

Settings: phase II study for the prevention of cytomegalovirus infection

## CCCCCCCCCCCCCCCCOCCCOP(=O)(O)CO[C@H](CO)Cn1ccc(N)nc1=O [brincidofovir, 3-(hexadecyloxy)propyl hydrogen ((((S)-1-(4-amino-2-oxopyrimidin-1 (2H)-yl)-3-hydroxypropan-2-yl)oxy)methyl)phosphonate]
  dose-limiting side effect: diarrhea
